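Values below derive from 48-hour exposures of cells grown in 96-well plates, with endpoints linearly interpolated between the two concentrations bracketing the appropriate inhibition level. Here, GI50 denotes the concentration required for 50% inhibition of growth. At the TGI there is no net growth.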 Some results are limits rather than exact numbers.

Among the test systems are DU-145 prostate; SF-268 CNS; HS 578T breast; UACC-257 melanoma; SNB-19 CNS; MDA-MB-231 breast; U251 CNS; SW-620 colon; NCI-H226 lung; TK-10 renal.
Holding throughout (assay): growth of human tumour cells (NCI), 48 h

`Cc1ccc2c(=O)cc(-c3cccs3)[nH]c2n1`: the TGI in the assay with DU-145 prostate was over 100 µM; with SF-268 CNS, over 100 µM; with HS 578T breast, over 71.4 µM; in the assay on UACC-257 melanoma, over 100 µM; with SNB-19 CNS, 82.2 µM; with MDA-MB-231 breast it was over 100 µM. Besides, the TGI is over 100 µM in the assay with U251 CNS, over 30.1 µM in the assay on SW-620 colon, 63.7 µM with NCI-H226 lung and over 100 µM in the assay with TK-10 renal.

On to `CCC1(C(=O)OC(C)(C)C)OC12C(C)CCCC2C` (stereo unspecified), for which the TGI with DU-145 prostate, with SF-268 CNS, in the assay on HS 578T breast, with UACC-257 melanoma, with SNB-19 CNS and in the assay with MDA-MB-231 breast was over 100 µM throughout. Moreover, the TGI in the assay with U251 CNS, in the assay on SW-620 colon, with NCI-H226 lung and with TK-10 renal was over 100 µM in each case.

For the molecule `CC1(CF)SCc2nc3ccccc3n21` (stereo unspecified), the TGI in the assay on DU-145 prostate, with SF-268 CNS, in the assay on HS 578T breast, in the assay on UACC-257 melanoma, with SNB-19 CNS and in the assay with MDA-MB-231 breast was over 100 µM in each case. Further, the TGI in the assay on U251 CNS, in the assay with SW-620 colon, in the assay with NCI-H226 lung and in the assay with TK-10 renal was over 100 µM each time.

Consider `NC(=O)NNC(=O)c1nc[nH]c1[N+](=O)[O-]`, for which the TGI with DU-145 prostate, in the assay with SF-268 CNS, with HS 578T breast, with UACC-257 melanoma, in the assay on MDA-MB-231 breast and with U251 CNS was over 100 µM in each case. Moreover, the TGI in the assay on SW-620 colon, in the assay on NCI-H226 lung and with TK-10 renal was over 100 µM each time.

As for `N#C/C(=C\n1ccc(=O)[nH]c1=S)C(N)=O`, the TGI in the assay on DU-145 prostate, with SF-268 CNS, with HS 578T breast, in the assay with UACC-257 melanoma, in the assay with SNB-19 CNS and in the assay on MDA-MB-231 breast was over 100 µM in each case. Further, the TGI in the assay on U251 CNS, in the assay with SW-620 colon and in the assay on NCI-H226 lung was over 100 µM each time.

In the case of `O=C(OCC1OC2OC(c3ccccc3)(n3ccc4c([N+](=O)[O-])ccnc43)OC2C1OC(=O)c1ccccc1)c1ccccc1` (stereo unspecified), the TGI in the assay with DU-145 prostate, with HS 578T breast, in the assay with UACC-257 melanoma, with SNB-19 CNS, with MDA-MB-231 breast and with U251 CNS was over 100 µM throughout. Besides, the TGI in the assay with SW-620 colon, in the assay on NCI-H226 lung and in the assay on TK-10 renal was over 100 µM each time.

As to `C[C@]12CCc3nc(Nc4ccccc4)sc3C1=CC[C@@H]1[C@@H]2CC[C@]2(C)/C(=N/NC(N)=S)CC[C@@H]12`, the GI50 in the assay on DU-145 prostate is 2.96 µM; in the assay with HS 578T breast, over 100 µM; in the assay with UACC-257 melanoma, 6.1 µM; in the assay with SNB-19 CNS it was 10.3 µM; in the assay with MDA-MB-231 breast, 4.43 µM; in the assay on U251 CNS, 3.64 µM. Besides, the GI50 was 3.09 µM in the assay on SW-620 colon, 2.07 µM with NCI-H226 lung and 46.4 µM with TK-10 renal. Besides, the TGI in the assay on DU-145 prostate, in the assay on HS 578T breast, with UACC-257 melanoma, in the assay with SNB-19 CNS, with MDA-MB-231 breast and with U251 CNS was over 100 µM in each case. The figures for the TGI with SW-620 colon, with NCI-H226 lung and in the assay on TK-10 renal were over 100 µM, 5.71 µM and over 100 µM, respectively.

For `C=CCCC(=O)CC(O)(C(F)(F)F)C(F)(F)F`, the TGI in the assay on DU-145 prostate, with HS 578T breast, in the assay with UACC-257 melanoma, in the assay with SNB-19 CNS, in the assay with MDA-MB-231 breast and in the assay with U251 CNS was over 100 µM in each case. The TGI in the assay on SW-620 colon, in the assay with NCI-H226 lung and in the assay on TK-10 renal was over 100 µM throughout.

Regarding `Cc1ccc(-c2cc(N)n(-c3nc4c(c(=O)n(C)c(=O)n4C)n3C)n2)cc1`, the TGI in the assay with DU-145 prostate, with SF-268 CNS, in the assay with HS 578T breast, with UACC-257 melanoma, with SNB-19 CNS and in the assay on MDA-MB-231 breast was over 100 µM throughout. Besides, the TGI in the assay on U251 CNS, in the assay on NCI-H226 lung and in the assay with TK-10 renal was over 100 µM in each case.

With `CC1CCOc2ccc(cc2)C=Nc2ccc(cc2)CCc2ccc(cc2)N=Cc2ccc(cc2)OCC1` (stereo unspecified), the TGI with DU-145 prostate, in the assay with SF-268 CNS, with HS 578T breast, in the assay with UACC-257 melanoma, in the assay with SNB-19 CNS and in the assay with MDA-MB-231 breast was over 100 µM throughout. The TGI in the assay with U251 CNS, in the assay with SW-620 colon and in the assay on NCI-H226 lung was over 100 µM each time.

On to `COc1cc(C2SCC(=O)N2c2ccc(-c3ccc(-n4c(-c5ccccc5)nc5ccccc5c4=O)cc3)cc2)cc(OC)c1OC` (stereo unspecified), for which the TGI in the assay with DU-145 prostate, in the assay on SF-268 CNS, in the assay with HS 578T breast, with SNB-19 CNS, in the assay on MDA-MB-231 breast and in the assay on U251 CNS was over 100 µM in each case. Besides, the TGI with SW-620 colon, in the assay with NCI-H226 lung and in the assay on TK-10 renal was over 100 µM in each case.

For the origin of these results see PubChem BioAssay (NCI).
